The target in the experiment is nuclear receptor TLX (NR2E1) ligand-binding domain (Homo sapiens (Human), UniProt Q9Y466). As to the kind of experiment: AlphaScreen assay detecting TLX-RIP140 NR box peptide interaction. It is filed as biochemical. To be noted: for EC50 / Efficacy (fold increase): his-tagged TLX LBD, biotinylated RIP140-L6 peptide recruitment; for Emax: read-out: Relative efficacy (%). As for the experimental part: In these experiments, compounds from Example 1 were evaluated in a biochemical assay to characterize ligand binding to TLX by detecting alterations in the ability of the TLX ligand binding domain to recruit an NR box peptide derived from the nuclear receptor-interacting protein 1 (NRIP1; receptor-interacting protein 140 (RIP140) transcriptional cofactor. RIP140 has been previously identified as a TLX interacting protein (Corso-Diaz X, et al. (2016) Co-activator candidate interactions for orphan nuclear receptor NR2E1. BMC Genomics 17:832).
AlphaScreen (Perkin Elmer, Shelton, CT) technology was used to detect the TLX-RIP140 NR box peptide interaction. The AlphaScreen assay was performed as previously described using other nuclear receptors including ROR, FXR, LXR, VDR and RXR (Bettoun D J, et al., (2003) Mol Endocrinol 17:2320-2328; Bramlett K S, et al., (2003) Journal of Pharmacology and Experimental Therapeutics 307:291-296; Houck K A, at al., (2004) Mol Genet Metab 83:184-187; Kumar N, et al., (2010) Mol Pharmacol 77:228-236; and Wang Y, et al., (2010) ACS Chemical Biology: 1029-1034. The present experiments used the N-terminal his-tagged ligand-binding domain (LBD) of TLX (NovAliX SAS, Strasbourg, France) and an N-terminal biotinylated RIP140-L6 peptide with a N-terminal KGG linker, namely ([…] (aa484-513)).
A general note: In Alpha technology, singlet oxygen from a donor bead excites a nearby acceptor bead.

By EC50 is commonly meant the concentration needed to bring the measured effect to its halfway point. High values mean lower potency in that assay, low ones higher potency in that assay.

nuclear receptor TLX (NR2E1) ligand-binding domain, sequence (Q9Y466 155-383): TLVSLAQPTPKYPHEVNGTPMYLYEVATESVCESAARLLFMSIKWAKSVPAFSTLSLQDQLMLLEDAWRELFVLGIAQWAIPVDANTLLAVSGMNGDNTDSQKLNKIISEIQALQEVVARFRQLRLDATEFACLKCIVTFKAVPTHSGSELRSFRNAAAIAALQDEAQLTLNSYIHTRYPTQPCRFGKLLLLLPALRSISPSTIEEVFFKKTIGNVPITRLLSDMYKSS

As to `CCCCCCCCCC/C=C(/C)C/C(C)=C/[C@H](C)CC(=O)O` [Compound 1-A], it took 2200 nM to reach a half-maximal effect (EC50) and the “Efficacy (fold increase)” value was found to be 6.1 fold. For the same compound, the Emax (relative to oleic acid = 100.0) was found to be 72.6%.
Take `CCCCCCCCCC/C=C(/C)C/C(C)=C/[C@@H](C)CC(=O)O` [Compound 1-B]: the EC50 came to 2400 nM and the “Efficacy (fold increase)” value is given as 6.5 fold. Further, the Emax (relative to oleic acid = 100.0) amounted to 77.4%.
The like results for `CCCCCCCCC[C@@H](C)/C=C(/C)C/C(C)=C/[C@H](C)CC(=O)O` [Compound 1-C] were, in that order, 3100 nM, 6.8 fold and 81%.
In the case of `CCCCCCCCC[C@@H](C)/C=C(/C)C/C(C)=C/[C@@H](C)CC(=O)O` [Compound 1-D], a half-maximal effect (EC50) was put at 3200 nM and the “Efficacy (fold increase)” value turned out to be 7.1 fold. The Emax (relative to oleic acid = 100.0) turned out to be 84.5%.
Regarding `CCCCCCCCC[C@H](C)/C=C(/C)C/C(C)=C/[C@H](C)CC(=O)O` [Compound 1-E], a half-maximal response (EC50) required 1700 nM and the “Efficacy (fold increase)” value is on record as 6.2 fold. Further, where the note is “relative to oleic acid = 100.0”, the Emax amounted to 73.8%.
For `CCCCCCCCC[C@H](C)/C=C(/C)C/C(C)=C/[C@@H](C)CC(=O)O` [Compound 1-F], the EC50 is 1900 nM and the “Efficacy (fold increase)” value is 7.2 fold. For the same compound, for the setting “relative to oleic acid = 100.0”, the Emax came to 85.7%.
Take `CCCCCCCC/C=C(/C)C/C(C)=C/[C@H](C)CCCC(=O)O` [Compound 2-A]: the EC50 was 2500 nM and the “Efficacy (fold increase)” value was found to be 6.6 fold. Also, the Emax (relative to oleic acid = 100.0) came out at 78.6%.
The like results for `CCCCCCCC/C=C(/C)C/C(C)=C/[C@@H](C)CCCC(=O)O` [Compound 2-B] were, in that order, 3100 nM, 6.6 fold and 78.6%.
`CCCCCCC[C@@H](C)/C=C(/C)C/C(C)=C/[C@H](C)CCCC(=O)O` [Compound 2-C]: the EC50 stood at 1500 nM and the “Efficacy (fold increase)” value was 6.6 fold. The Emax (relative to oleic acid = 100.0) worked out at 78.6%.
The matching figures for `CCCCCCC[C@@H](C)/C=C(/C)C/C(C)=C/[C@@H](C)CCCC(=O)O` [Compound 2-D]: 1300 nM, 5.8 fold and 69%.
The matching figures for `CCCCCCC[C@H](C)/C=C(/C)C/C(C)=C/[C@H](C)CCCC(=O)O` [Compound 2-E]: 1300 nM, 5.8 fold and 69%.
The like results for `CCCCCCC[C@H](C)/C=C(/C)C/C(C)=C/[C@@H](C)CCCC(=O)O` [Compound 2-F] were, in that order, 1600 nM, 6.1 fold and 72.6%.
`CCCCCC/C=C(/C)C/C(C)=C/[C@H](C)CCCCCC(=O)O` [Compound 3-A]: the EC50 came to 1600 nM and the “Efficacy (fold increase)” value was 6.5 fold. Besides, the Emax (relative to oleic acid = 100.0) came out at 77.4%.
The matching figures for `CCCCCC/C=C(/C)C/C(C)=C/[C@@H](C)CCCCCC(=O)O` [Compound 3-B]: 900 nM, 6.6 fold and 78.6%.
For `CCCCC[C@@H](C)/C=C(/C)C/C(C)=C/[C@H](C)CCCCCC(=O)O` [Compound 3-C], the EC50 is 800 nM and the “Efficacy (fold increase)” value worked out at 5.5 fold. Further, where the note is “relative to oleic acid = 100.0”, the Emax was 65.5%.
The like results for `CCCCC[C@@H](C)/C=C(/C)C/C(C)=C/[C@@H](C)CCCCCC(=O)O` [Compound 3-D] were, in that order, 1200 nM, 6.1 fold and 72.6%.
The like results for `CCCCC[C@H](C)/C=C(/C)C/C(C)=C/[C@H](C)CCCCCC(=O)O` [Compound 3-E] were, in that order, 1000 nM, 6.3 fold and 75%.
For `CCCCC[C@H](C)/C=C(/C)C/C(C)=C/[C@@H](C)CCCCCC(=O)O` [Compound 3-F], the EC50 is 900 nM and the “Efficacy (fold increase)” value is 6.0 fold. In addition, the Emax (relative to oleic acid = 100.0) was found to be 71.4%.
With `CCCC/C=C(/C)C/C(C)=C/[C@H](C)CCCCCCCC(=O)O` [Compound 4-A], a half-maximal response (EC50) required 1500 nM and the “Efficacy (fold increase)” value amounted to 6.6 fold. Further, the Emax (relative to oleic acid = 100.0) came to 78.6%.
`CCCC/C=C(/C)C/C(C)=C/[C@@H](C)CCCCCCCC(=O)O` [Compound 4-B]: it took 3000 nM to reach a half-maximal effect (EC50) and the “Efficacy (fold increase)” value was 7.1 fold. Further, for the setting “relative to oleic acid = 100.0”, the Emax was found to be 84.5%.
The matching figures for `CCC[C@@H](C)/C=C(/C)C/C(C)=C/[C@H](C)CCCCCCCC(=O)O` [Compound 4-C]: 1500 nM, 6.2 fold and 73.8%.
`CCC[C@@H](C)/C=C(/C)C/C(C)=C/[C@@H](C)CCCCCCCC(=O)O` [Compound 4-D]: the EC50 came out at 1600 nM and the “Efficacy (fold increase)” value is reported as 6.2 fold. Also, the Emax (relative to oleic acid = 100.0) amounted to 73.8%.
As for `CCC[C@H](C)/C=C(/C)C/C(C)=C/[C@H](C)CCCCCCCC(=O)O` [Compound 4-E], the EC50 worked out at 1300 nM and the “Efficacy (fold increase)” value was 5.7 fold. For the same compound, the Emax (relative to oleic acid = 100.0) came out at 67.9%.
As for `CCC[C@H](C)/C=C(/C)C/C(C)=C/[C@@H](C)CCCCCCCC(=O)O` [Compound 4-F], the response was half-maximal at 1900 nM (EC50) and the “Efficacy (fold increase)” value is reported as 6.0 fold. Further, for the setting “relative to oleic acid = 100.0”, the Emax was 71.4%.
In the case of `CCCCCCCC/C=C\CCCCCCCC(=O)O` [Oleic Acid, oleic acid, reference compound], the EC50 was found to be 3600 nM and the “Efficacy (fold increase)” value was determined as 8.4 fold. Also, the “Relative efficacy (%)” value (relative to oleic acid = 100.0) turned out to be 100.0%.

The record behind these values is patent US20250134842A1, “FATTY ACID MIMETICS AS MODULATORS OF NUCLEAR RECEPTOR TLX (NR2E1)” (Trustees of Dartmouth College, priority 2023, published 2025).
